Experimental data: the supplement of paper PMC8612539

System: Escherichia coli
Assay: minimum inhibitory concentration (MIC)
Method: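 Broth microdilution MIC (Sensititre BOPO7F bovine plate, CLSI methods) of 19 antimicrobials against field isolates of P. multocida, M. haemolytica, H. somni (deep nasopharyngeal swabs) and E. coli, Enterococcus spp. (rectal swabs) from weaned dairy heifers. Incubation 16-24 h at 35 C. MIC is the lowest concentration preventing visible growth. Values with <= or > lie at the tested range limits. Trimethoprim-sulfamethoxazole is given as the trimethoprim component of a 1:19 mixture.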

CC[C@H]1OC(=O)C[C@@H](O)[C@H](C)[C@@H](O[C@@H]2O[C@H](C)[C@@H](O[C@H]3C[C@@](C)(O)[C@@H](O)[C@H](C)O3)[C@H](N(C)C)[C@H]2O)[C@@H](CC=O)C[C@@H](C)C(=O)/C=C/C(C)=C/[C@@H]1CO[C@@H]1O[C@H](C)[C@@H](O)[C@@H](OC)[C@H]1OC [Tylosin]
Details	minimum inhibitory concentration [µg/mL]
isolate (source animal id): 8	> 32
isolate (source animal id): 9	> 32
isolate (source animal id): 10	> 32
isolate (source animal id): 11	> 32
isolate (source animal id): 12	> 32
isolate (source animal id): 13	> 32
isolate (source animal id): 14	> 32
isolate (source animal id): 15	> 32
isolate (source animal id): 16	> 32
isolate (source animal id): 98	> 32
isolate (source animal id): 99	> 32
isolate (source animal id): 100	> 32
isolate (source animal id): 101	> 32
isolate (source animal id): 102	> 32
isolate (source animal id): 103	> 32
isolate (source animal id): 104	> 32
isolate (source animal id): 105	> 32
isolate (source animal id): 106	> 32
isolate (source animal id): 107	> 32
isolate (source animal id): 108	> 32
isolate (source animal id): 109	> 32
isolate (source animal id): 110	> 32
isolate (source animal id): 111	> 32
isolate (source animal id): 112	> 32
isolate (source animal id): 113	> 32
isolate (source animal id): 114	> 32
isolate (source animal id): 115	> 32
isolate (source animal id): 116	> 32
isolate (source animal id): 117	> 32
isolate (source animal id): 118	> 32
isolate (source animal id): 119	> 32
isolate (source animal id): 120	> 32
isolate (source animal id): 121	> 32
isolate (source animal id): 122	> 32
isolate (source animal id): 123	> 32
isolate (source animal id): 124	> 32
isolate (source animal id): 125	> 32
isolate (source animal id): 126	> 32
isolate (source animal id): 127	> 32
isolate (source animal id): 128	> 32
isolate (source animal id): 129	> 32
isolate (source animal id): 130	> 32
isolate (source animal id): 131	> 32
isolate (source animal id): 132	> 32
isolate (source animal id): 133	> 32
isolate (source animal id): 134	> 32
isolate (source animal id): 135	> 32
isolate (source animal id): 136	> 32
isolate (source animal id): 137	> 32
isolate (source animal id): 138	> 32
isolate (source animal id): 139	> 32
isolate (source animal id): 140	> 32
isolate (source animal id): 141	> 32
isolate (source animal id): 142	> 32
isolate (source animal id): 143	> 32
isolate (source animal id): 144	> 32
isolate (source animal id): 145	> 32
isolate (source animal id): 146	> 32
isolate (source animal id): 147	> 32
isolate (source animal id): 148	> 32
isolate (source animal id): 149	> 32
isolate (source animal id): 150	> 32
isolate (source animal id): 151	> 32
isolate (source animal id): 152	> 32
isolate (source animal id): 153	> 32
isolate (source animal id): 154	> 32
isolate (source animal id): 155	> 32
isolate (source animal id): 156	> 32
isolate (source animal id): 157	> 32
isolate (source animal id): 158	> 32
isolate (source animal id): 159	> 32
isolate (source animal id): 160	> 32
isolate (source animal id): 161	> 32
isolate (source animal id): 162	> 32
isolate (source animal id): 163	> 32
isolate (source animal id): 164	> 32
isolate (source animal id): 165	> 32
isolate (source animal id): 166	> 32
isolate (source animal id): 167	> 32
isolate (source animal id): 168	> 32
isolate (source animal id): 169	> 32
isolate (source animal id): 170	> 32
isolate (source animal id): 171	> 32
isolate (source animal id): 172	> 32
isolate (source animal id): 173	> 32
isolate (source animal id): 174	> 32
isolate (source animal id): 175	> 32
isolate (source animal id): 176	> 32
isolate (source animal id): 177	> 32
isolate (source animal id): 178	> 32
isolate (source animal id): 179	> 32
isolate (source animal id): 180	> 32
isolate (source animal id): 181	> 32
isolate (source animal id): 182	> 32
isolate (source animal id): 183	> 32
isolate (source animal id): 184	> 32
isolate (source animal id): 185	> 32
isolate (source animal id): 186	> 32
isolate (source animal id): 187	> 32
isolate (source animal id): 188	> 32

COc1cc(NS(=O)(=O)c2ccc(N)cc2)nc(OC)n1 [sulfadimethoxine]
Details	minimum inhibitory concentration [µg/mL]
isolate (source animal id): 8	> 256
isolate (source animal id): 9	> 256
isolate (source animal id): 10	> 256
isolate (source animal id): 11	≤ 256
isolate (source animal id): 12	> 256
isolate (source animal id): 13	≤ 256
isolate (source animal id): 14	> 256
isolate (source animal id): 15	≤ 256
isolate (source animal id): 16	> 256
isolate (source animal id): 98	≤ 256
isolate (source animal id): 99	≤ 256
isolate (source animal id): 100	> 256
isolate (source animal id): 101	> 256
isolate (source animal id): 102	> 256
isolate (source animal id): 103	> 256
isolate (source animal id): 104	> 256
isolate (source animal id): 105	> 256
isolate (source animal id): 106	> 256
isolate (source animal id): 107	> 256
isolate (source animal id): 108	> 256
isolate (source animal id): 109	≤ 256
isolate (source animal id): 110	> 256
isolate (source animal id): 111	> 256
isolate (source animal id): 112	> 256
isolate (source animal id): 113	> 256
isolate (source animal id): 114	≤ 256
isolate (source animal id): 115	> 256
isolate (source animal id): 116	> 256
isolate (source animal id): 117	> 256
isolate (source animal id): 118	≤ 256
isolate (source animal id): 119	> 256
isolate (source animal id): 120	> 256
isolate (source animal id): 121	> 256
isolate (source animal id): 122	> 256
isolate (source animal id): 123	> 256
isolate (source animal id): 124	> 256
isolate (source animal id): 125	> 256
isolate (source animal id): 126	> 256
isolate (source animal id): 127	> 256
isolate (source animal id): 128	> 256
isolate (source animal id): 129	> 256
isolate (source animal id): 130	> 256
isolate (source animal id): 131	> 256
isolate (source animal id): 132	> 256
isolate (source animal id): 133	> 256
isolate (source animal id): 134	> 256
isolate (source animal id): 135	≤ 256
isolate (source animal id): 136	> 256
isolate (source animal id): 137	≤ 256
isolate (source animal id): 138	> 256
isolate (source animal id): 139	> 256
isolate (source animal id): 140	≤ 256
isolate (source animal id): 141	> 256
isolate (source animal id): 142	> 256
isolate (source animal id): 143	> 256
isolate (source animal id): 144	> 256
isolate (source animal id): 145	> 256
isolate (source animal id): 146	> 256
isolate (source animal id): 147	> 256
isolate (source animal id): 148	> 256
isolate (source animal id): 149	> 256
isolate (source animal id): 150	> 256
isolate (source animal id): 151	> 256
isolate (source animal id): 152	> 256
isolate (source animal id): 153	> 256
isolate (source animal id): 154	> 256
isolate (source animal id): 155	> 256
isolate (source animal id): 156	> 256
isolate (source animal id): 157	> 256
isolate (source animal id): 158	> 256
isolate (source animal id): 159	> 256
isolate (source animal id): 160	> 256
isolate (source animal id): 161	> 256
isolate (source animal id): 162	> 256
isolate (source animal id): 163	> 256
isolate (source animal id): 164	> 256
isolate (source animal id): 165	> 256
isolate (source animal id): 166	> 256
isolate (source animal id): 167	> 256
isolate (source animal id): 168	≤ 256
isolate (source animal id): 169	≤ 256
isolate (source animal id): 170	> 256
isolate (source animal id): 171	≤ 256
isolate (source animal id): 172	≤ 256
isolate (source animal id): 173	> 256
isolate (source animal id): 174	≤ 256
isolate (source animal id): 175	> 256
isolate (source animal id): 176	> 256
isolate (source animal id): 177	> 256
isolate (source animal id): 178	> 256
isolate (source animal id): 179	≤ 256
isolate (source animal id): 180	> 256
isolate (source animal id): 181	> 256
isolate (source animal id): 182	> 256
isolate (source animal id): 183	> 256
isolate (source animal id): 184	> 256
isolate (source animal id): 185	> 256
isolate (source animal id): 186	≤ 256
isolate (source animal id): 187	> 256
isolate (source animal id): 188	> 256
